Consider nine compounds from ChEMBL document CHEMBL1201862, “PubChem BioAssay data set” (2004).

Test systems include 786-0; BT-549; CCRF-CEM; COLO 205; DU-145; HOP-62; K562; KM-20L2; M14; MDA-N; MOLT-4; OVCAR-8; PC-3; RXF 393; SF-295; SK-MEL-2; SK-MEL-5; SNB-75; SW-620; UO-31.
What all share (assay): inhibition of tumour cell growth, NCI panel, 48 h

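A five-concentration, 48-hour dose response in 96-well plates underlies each endpoint, interpolated linearly between surrounding concentrations. Abbreviation: GI50, concentration required for 50% inhibition of growth.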 Calls of active or inactive are those of the source. Rule as the data show it: active = GI50 up to about 1.1 µM and inactive = higher.

On to `Cc1c2ccc3ccccc3c2c[n+]2ccccc12`, for which the GI50 in the assay on 786-0 was 2.37 µM (inactive); with BT-549, 2.96 µM (inactive); with CCRF-CEM it was 6.59 µM (inactive); in the assay on COLO 205, 2.82 µM (inactive); in the assay with DU-145, 11.4 µM (inactive); in the assay on HOP-62, 7.93 µM (inactive). Besides, the GI50 with K562 was 10.7 µM (inactive); with KM-20L2, 19.7 µM (inactive); in the assay on M14 it was 15.8 µM (inactive); in the assay on MDA-N it was 6.71 µM (inactive); in the assay with MOLT-4, 4.66 µM (inactive); in the assay with OVCAR-8, 4.5 µM (inactive). For the same compound, the GI50 in the assay on PC-3 is 26.7 µM (inactive); in the assay with RXF 393 it was 22.3 µM (inactive); in the assay on SF-295, 5.89 µM (inactive); with SK-MEL-2 it was 11.6 µM (inactive); in the assay on SK-MEL-5 it was 6.79 µM (inactive); with SNB-75, 6.41 µM (inactive). In addition, the GI50 in the assay on SW-620 is 4.2 µM (inactive); in the assay with UO-31, 17.5 µM (inactive).

As for `Cc1cc(NC(=O)C(=O)Cc2nc3ccccc3s2)ccc1Cl`, the GI50 in the assay with 786-0, with BT-549, in the assay on CCRF-CEM, in the assay with COLO 205, in the assay with DU-145 and in the assay with HOP-62 was > 100 µM (inactive) in each case. For the same compound, the GI50 in the assay with K562, with KM-20L2, in the assay with M14, with MDA-N, with MOLT-4 and in the assay with OVCAR-8 was > 100 µM (inactive) in each case. For the same compound, the GI50 with PC-3, in the assay with RXF 393, in the assay on SF-295, with SK-MEL-2, with SK-MEL-5 and with SNB-75 was > 100 µM (inactive) each time. Also, the GI50 with SW-620 and in the assay with UO-31 was > 100 µM (inactive) each time.

`COc1cccc2c1C(=O)c1c(O)c3c(c(O)c1C2=O)C[C@@](O)(C(=O)CO)CC3OC1CC(NCCCCC(OC(C)=O)OC(C)=O)C(O)C(C)O1` (stereo partly specified): the GI50 is 0.00298 µM (active) with 786-0; 0.00227 µM (active) with CCRF-CEM; 0.0021 µM (active) with HOP-62; 0.00197 µM (active) in the assay on K562; 0.00242 µM (active) in the assay on KM-20L2; 0.00169 µM (active) in the assay with M14. The GI50 was 0.00235 µM (active) in the assay on MOLT-4; 0.00305 µM (active) in the assay on OVCAR-8; 0.00193 µM (active) with RXF 393; 0.0034 µM (active) with SF-295; 0.00212 µM (active) in the assay on SK-MEL-2; 0.00137 µM (active) in the assay on SNB-75. Also, the GI50 in the assay with SW-620 is 0.00259 µM (active); in the assay on UO-31 it was 0.00192 µM (active).

With `COc1ccc2[nH]c3c(C)c4cc[n+](C)cc4c(C)c3c2c1`, the GI50 was 1.87 µM (inactive) in the assay with BT-549; 1.72 µM (inactive) in the assay with CCRF-CEM; 0.621 µM (active) in the assay on HOP-62; 3.17 µM (inactive) in the assay with KM-20L2; 0.305 µM (active) in the assay on OVCAR-8; 3.54 µM (inactive) in the assay on PC-3. Further, the GI50 in the assay with RXF 393 is 1.32 µM (inactive); in the assay on SF-295, 0.332 µM (active); with SK-MEL-2, 3.85 µM (inactive); in the assay with SK-MEL-5 it was 1.76 µM (inactive); in the assay with SNB-75, 0.228 µM (active); in the assay on SW-620, 1.11 µM (active). Further, in the assay with UO-31, the GI50 was 21.7 µM (inactive).

Turning to `CC(=O)OC(CCC1(C)OC1COc1ccc(CCNC(=O)C=C(C)C)cc1)C(C)(C)OC(C)=O` (stereo unspecified), the GI50 in the assay with 786-0 was > 100 µM (inactive); with BT-549, 0.377 µM (active); with CCRF-CEM it was > 40.6 µM (inactive); in the assay on COLO 205 it was 28.2 µM (inactive); with DU-145, > 100 µM (inactive); in the assay with HOP-62, 20 µM (inactive). For the same compound, the GI50 was 62.1 µM (inactive) in the assay with KM-20L2; 16.3 µM (inactive) in the assay with M14; 13.3 µM (inactive) in the assay on MDA-N; 8.93 µM (inactive) with MOLT-4; 22.9 µM (inactive) in the assay on OVCAR-8; 29.9 µM (inactive) with PC-3. The GI50 in the assay with RXF 393 is 13.5 µM (inactive); in the assay on SF-295, 0.743 µM (active); with SK-MEL-2, > 51.9 µM (inactive); with SK-MEL-5, 0.502 µM (active); in the assay with SNB-75, 44.4 µM (inactive); in the assay with SW-620 it was > 100 µM (inactive). The GI50 with UO-31 was 48.9 µM (inactive).

In the case of `CC(=O)NC1COC(COC(=O)CCCCCCCCCCNC(=O)c2ccc([N+](=O)[O-])c3c(=O)c4ccccc4[nH]c23)C(O)C1OC(C)C(=O)NC(C(=O)NC(CCC(N)=O)C(=O)OCc1ccccc1)C(C)C` (stereo unspecified), the GI50 was 15 µM (inactive) in the assay with 786-0; 48.8 µM (inactive) with BT-549; 20.8 µM (inactive) with CCRF-CEM; 18.8 µM (inactive) with COLO 205; 5.79 µM (inactive) in the assay on DU-145; 7.45 µM (inactive) with HOP-62. Moreover, the GI50 is 9.48 µM (inactive) in the assay on K562; 16.3 µM (inactive) in the assay with KM-20L2; 35 µM (inactive) with M14; 0.966 µM (active) in the assay with MDA-N; 18.6 µM (inactive) in the assay with MOLT-4; 12.6 µM (inactive) in the assay with OVCAR-8. For the same compound, the GI50 was 8.05 µM (inactive) in the assay on PC-3; 4.02 µM (inactive) in the assay with RXF 393; 22 µM (inactive) in the assay on SF-295; 11 µM (inactive) with SK-MEL-2; 29.6 µM (inactive) in the assay on SK-MEL-5; 14.4 µM (inactive) in the assay on SNB-75. The GI50 in the assay with SW-620 is 26.6 µM (inactive); in the assay with UO-31, 8.41 µM (inactive).

Turning to `Cc1cc(O)nc(NN2C(Cl)C(=O)C2c2cccc(O)c2)n1` (stereo unspecified), the GI50 in the assay on CCRF-CEM is 4.63 µM (inactive); in the assay on COLO 205 it was 39.4 µM (inactive); in the assay on HOP-62, 4.49 µM (inactive); with K562, 2.7 µM (inactive); in the assay on KM-20L2, 10.3 µM (inactive); in the assay on M14, 7.13 µM (inactive). The GI50 was 5.38 µM (inactive) in the assay on MOLT-4; 7.21 µM (inactive) with OVCAR-8; 3.48 µM (inactive) in the assay with RXF 393; 4.43 µM (inactive) with SK-MEL-2; 12.2 µM (inactive) with SK-MEL-5; 1.64 µM (inactive) in the assay with SNB-75. The GI50 with SW-620 is 12.4 µM (inactive); in the assay with UO-31, 3.83 µM (inactive).

Regarding `CCOC(OCC)(OCC)C(Br)CC` (stereo unspecified), the GI50 in the assay with 786-0 is 16.4 µM (inactive); with CCRF-CEM it was 28.2 µM (inactive); in the assay on COLO 205 it was 31.8 µM (inactive); in the assay on HOP-62 it was > 100 µM (inactive); in the assay with K562 it was > 100 µM (inactive); with KM-20L2 it was 11.8 µM (inactive). Further, the GI50 in the assay with M14, in the assay on MOLT-4, with OVCAR-8, in the assay on RXF 393, in the assay with SF-295 and in the assay on SK-MEL-2 was > 100 µM (inactive) throughout. Also, the GI50 in the assay with SK-MEL-5, with SNB-75 and in the assay with UO-31 was > 100 µM (inactive) each time.

In the case of `C/C=C/CP(=O)(c1ccccc1)c1ccccc1`, the GI50 in the assay with 786-0, in the assay with CCRF-CEM, with COLO 205, with HOP-62, in the assay on K562 and in the assay on KM-20L2 was > 100 µM (inactive) in each case. Moreover, the GI50 in the assay with M14, with MOLT-4, with OVCAR-8, in the assay on RXF 393, in the assay with SF-295 and with SK-MEL-2 was > 100 µM (inactive) each time. In addition, the GI50 in the assay on SK-MEL-5, in the assay on SNB-75, in the assay on SW-620 and in the assay on UO-31 was > 100 µM (inactive) throughout.
